Measured values from patent publication US20120301895A1, “METHODS OF MODULATING BINDING OF SON OF SEVENLESS TO PHOSPHATIDIC ACID AND IDENTIFYING COMPOUNDS THAT MODULATE SUCH BINDING” (THE RESEARCH FOUNDATION OF STATE UNIVERSITY OF NEW YORK, priority 2007, published 2012).

Columns and labels:
[1] = test system: PLD activity in MDA-MB-231 cells; assay: In vivo PLD activity (transphosphatidylation, PBt) in MDA-MB-231 cells; type: cell-based, human; conditions: honokiol 20 μM, 4 hr
Experimental: (§1) In FIG. 13A, MDA-MB-231 cells were plated as in FIGS. 12A-C and then shifted to either 10% serum or 0.5% serum overnight as indicated. Honokiol (20 μM) or control ethanol was then added for 4 hr as indicated, at which time the cells were harvested and the levels of PBt were determined as in FIGS. 12A-C. The experiment shown is representative of at least three independent experiments. In FIG. 13B, the effect of honokiol on the activity of PLD isoforms was measured using exogenous substrate assay as described previously (Henage et al., “Kinetic Analysis of a Mammalian Phospholipase D: Allosteric Modulation by Monomeric GTPases, Protein Kinase C, and Polyphosphoinositides,” J. Biol. Chem. 281:3408-17 (2006), which is hereby incorporated by reference in its entirety). […] The amount of background was determined and subtracted using a bovine serum albumin standard. […]
(§2) For in vivo PLD activity, cells were plated in 60 mm culture dishes in DMEM with 10% serum at a density that would allow them to grow to about 80% confluence after 2 days, then cells were shifted to DMEM containing 0.5% or 10% serum as indicated in the figure legends overnight. […] Briefly, PLD activity was measured by the release of [methyl-^3H] choline from [choline-methyl-^3H]dipalmitoyl-phosphatidylcholine. […]

PLD2 = biological target: T1, PLD2 (Homo sapiens, UniProt O14939); assay: In vitro PLD activity, exogenous substrate assay, PLD2; type: biochemical; conditions: purified recombinant PLD2, 30 min at 37° C.
T1 construct: made in house
T1 sequence (O14939 whole entry): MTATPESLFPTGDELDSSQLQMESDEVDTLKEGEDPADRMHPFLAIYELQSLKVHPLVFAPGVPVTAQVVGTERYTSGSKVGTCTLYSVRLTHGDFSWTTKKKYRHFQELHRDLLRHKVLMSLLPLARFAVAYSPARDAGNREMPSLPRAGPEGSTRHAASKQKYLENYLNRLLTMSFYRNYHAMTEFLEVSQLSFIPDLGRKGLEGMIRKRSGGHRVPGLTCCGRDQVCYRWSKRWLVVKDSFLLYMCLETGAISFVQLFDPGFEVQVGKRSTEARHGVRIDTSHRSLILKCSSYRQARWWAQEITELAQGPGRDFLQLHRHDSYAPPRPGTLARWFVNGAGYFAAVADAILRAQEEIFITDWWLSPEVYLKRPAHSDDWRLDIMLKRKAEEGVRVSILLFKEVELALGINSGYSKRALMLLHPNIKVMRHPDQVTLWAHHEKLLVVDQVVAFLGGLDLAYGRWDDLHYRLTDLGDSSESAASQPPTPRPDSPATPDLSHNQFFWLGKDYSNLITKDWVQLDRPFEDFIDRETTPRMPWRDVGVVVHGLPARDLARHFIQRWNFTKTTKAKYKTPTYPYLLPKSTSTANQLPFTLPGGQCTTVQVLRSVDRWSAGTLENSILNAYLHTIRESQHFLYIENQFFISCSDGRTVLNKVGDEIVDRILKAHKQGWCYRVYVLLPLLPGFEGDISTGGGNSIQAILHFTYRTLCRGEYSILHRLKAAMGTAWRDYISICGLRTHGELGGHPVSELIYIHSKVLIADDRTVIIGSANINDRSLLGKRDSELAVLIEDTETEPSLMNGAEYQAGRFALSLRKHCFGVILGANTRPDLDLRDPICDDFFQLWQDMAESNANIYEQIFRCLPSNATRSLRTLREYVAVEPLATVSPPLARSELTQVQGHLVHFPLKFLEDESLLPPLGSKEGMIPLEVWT
Experimental: as §1, §2

C=CCc1ccc(O)c(-c2ccc(O)c(CC=C)c2)c1 [honokiol, Honokiol]
PLD activity in cells in 0.5% serum (stress-induced) ([1]; 0.5% serum): completely suppressed
basal PLD activity in cells maintained in 10% serum ([1]; 10% serum): little effect
in vitro activity of PLD2 (PLD2): no significant effect
